Data taken from PubChem BioAssay AID248 (DTP/NCI, 2004).
Toxic doses and inconclusive results are not listed.

Test system: L1210 leukemia ip in BDF1 mice, survival T/C
Assay: NCI In Vivo Anticancer Drug Screen. Data for tumor model L1210 Leukemia (intraperitoneal) in B6D2F1 (BDF1) mice
Details: endpoint: mean survival time, higher = longer survival
Procedure, shortened: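 Survival endpoint. Drug-treated group vs vehicle group, expressed as T divided by C. Tumor passaged by transplantation.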

[1] = dose: 100.0 mg/kg/injection, schedule: Q01DX001 (ip), vehicle: saline
[2] = dose: 100.0 mg/kg/injection, schedule: Q04DX003 (ip), vehicle: Klucel (hydroxypropylcellulose) (HPC)
[3] = dose: 400.0 mg/kg/injection, schedule: Q04DX003 (ip), vehicle: Klucel (hydroxypropylcellulose) (HPC)
[4] = dose: 25.0 mg/kg/injection, schedule: Q01DX009 (ip), vehicle: saline with Tween-80
[5] = dose: 50.0 mg/kg/injection, schedule: Q01DX009 (ip), vehicle: saline with Tween-80
[6] = dose: 100.0 mg/kg/injection, schedule: Q01DX009 (ip), vehicle: saline with Tween-80
[7] = dose: 100.0 mg/kg/injection, schedule: Q04DX003 (ip), vehicle: saline with Tween-80
[8] = dose: 100.0 mg/kg/injection, schedule: Q01DX009 (ip), vehicle: Klucel (hydroxypropylcellulose) (HPC)
[9] = dose: 200.0 mg/kg/injection, schedule: Q01DX009 (ip), vehicle: Klucel (hydroxypropylcellulose) (HPC)
[10] = dose: 200.0 mg/kg/injection, schedule: Q01DX009 (ip), vehicle: saline with Tween-80
[11] = dose: 200.0 mg/kg/injection, schedule: Q04DX003 (ip), vehicle: saline with Tween-80
[12] = dose: 100.0 mg/kg/injection, schedule: Q01DX001 (ip), vehicle: Klucel (hydroxypropylcellulose) (HPC)
[13] = dose: 200.0 mg/kg/injection, schedule: Q01DX001 (ip), vehicle: Klucel (hydroxypropylcellulose) (HPC)
[14] = dose: 400.0 mg/kg/injection, schedule: Q01DX001 (ip), vehicle: Klucel (hydroxypropylcellulose) (HPC)
[15] = dose: 100.0 mg/kg/injection, schedule: Q04DX002 (ip), vehicle: saline with Tween-80

`O=C1CSC2=NCCN12` was tested, and the T/C [1] was 99 % of control, the T/C (dose: 100.0 mg/kg/injection, schedule: Q04DX003 (ip), vehicle: saline) was 93 % of control and the T/C (dose: 200.0 mg/kg/injection, schedule: Q01DX001 (ip), vehicle: saline) was 99 % of control. The T/C (dose: 200.0 mg/kg/injection, schedule: Q04DX003 (ip), vehicle: saline) was 98 % of control and the T/C (dose: 400.0 mg/kg/injection, schedule: Q01DX001 (ip), vehicle: saline) was 92 % of control.

In the case of `CCC(Sc1ccccc1[N+](=O)[O-])[N+](=O)[O-]` (stereo not drawn), the T/C [2] is reported as 105 % of control, the T/C (dose: 200.0 mg/kg/injection, schedule: Q04DX003 (ip), vehicle: Klucel (hydroxypropylcellulose) (HPC)) is reported as 95 % of control and the T/C [3] is reported as 100 % of control.

`COc1ccc(CCNC(=O)Cc2cc(OCc3ccccc3)c(OC)cc2[N+](=O)[O-])cc1OC` was tested, and the T/C (dose: 100.0 mg/kg/injection, schedule: Q04DX003 (ip), vehicle: water) was 90 % of control, the T/C (dose: 200.0 mg/kg/injection, schedule: Q01DX001 (ip), vehicle: water) was 91 % of control and the T/C (dose: 200.0 mg/kg/injection, schedule: Q04DX003 (ip), vehicle: water) was 91 % of control. For the same compound, the T/C (dose: 400.0 mg/kg/injection, schedule: Q01DX001 (ip), vehicle: water) was 96 % of control and the T/C (dose: 400.0 mg/kg/injection, schedule: Q04DX003 (ip), vehicle: water) was 91 % of control.

`CCOC(=O)c1cc(N/N=C2/CCCNC2=O)c[nH]1` was tested, and the T/C (dose: 100.0 mg/kg/injection, schedule: Q01DX001 (ip), vehicle: carboxymethylcellulose (CMC)) was 99 % of control, the T/C (dose: 200.0 mg/kg/injection, schedule: Q01DX001 (ip), vehicle: carboxymethylcellulose (CMC)) was 103 % of control and the T/C (dose: 400.0 mg/kg/injection, schedule: Q01DX001 (ip), vehicle: carboxymethylcellulose (CMC)) was 94 % of control.

In the case of `O=P1(NCCCl)OCCC(O)N1CCCl` (stereo not drawn), the T/C (dose: 100.0 mg/kg/injection, schedule: Q01DX001 (ip), vehicle: DMSO) is reported as 242 % of control, the T/C (dose: 200.0 mg/kg/injection, schedule: Q01DX001 (ip), vehicle: DMSO) is reported as 284 % of control and the T/C (dose: 400.0 mg/kg/injection, schedule: Q01DX001 (ip), vehicle: DMSO) is reported as 273 % of control.

In the case of `CCCCc1ccccn1`, the T/C [1] is reported as 96 % of control.

`N#CCC(C#N)N1CCOCC1` (stereo not drawn) was tested, and the T/C [4] was 92 % of control, the T/C [5] was 104 % of control and the T/C [6] was 93 % of control. The T/C [7] was 97 % of control.

In the case of `O=S(=O)(O)c1cc(Cl)c(O)c(Cl)c1`, the T/C [8] is reported as 95 % of control, the T/C [9] is reported as 102 % of control and the T/C (dose: 400.0 mg/kg/injection, schedule: Q01DX009 (ip), vehicle: Klucel (hydroxypropylcellulose) (HPC)) is reported as 106 % of control.

`CSc1ccc(NCN2C(=O)c3ccccc3C2=O)cc1` was tested, and the T/C [8] was 102 % of control and the T/C [9] was 100 % of control.

In the case of `CC(C)(C)[CH2][Sn]([Br])([Br])[CH2]C(C)(C)C`, the T/C (dose: 9.38 mg/kg/injection, schedule: Q01DX001 (ip), vehicle: other) is reported as 98 % of control.

With `COc1ccc(OC)c(C(C)(O)CC(=O)O)c1` (stereo not drawn) the T/C [6] was 100 % of control, the T/C [7] was 96 % of control and the T/C [10] was 105 % of control. For the same compound, the T/C [11] was 93 % of control, the T/C (dose: 400.0 mg/kg/injection, schedule: Q01DX009 (ip), vehicle: saline with Tween-80) was 97 % of control and the T/C (dose: 400.0 mg/kg/injection, schedule: Q04DX003 (ip), vehicle: saline with Tween-80) was 101 % of control.

In the case of `c1cc[c]([Sb]([S]c2ncnc3nc[nH]c23)[c]2ccccc2)cc1`, the T/C (dose: 5.0 mg/kg/injection, schedule: Q01DX001 (ip), vehicle: other) is reported as 97 % of control and the T/C (dose: 10.0 mg/kg/injection, schedule: Q01DX001 (ip), vehicle: other) is reported as 116 % of control.

`CCCCCCCC/C=C\CCCCCCCC(=O)OCCCCCCCCCCC` was tested, and the T/C (dose: 100.0 mg/kg/injection, schedule: Q01DX009 (ip), vehicle: other) was 93 % of control, the T/C (dose: 200.0 mg/kg/injection, schedule: Q01DX009 (ip), vehicle: other) was 94 % of control and the T/C (dose: 400.0 mg/kg/injection, schedule: Q01DX009 (ip), vehicle: other) was 100 % of control.

In the case of `O=C(NCCCl)NC1(C(=O)O)CCCC1`, the T/C [12] is reported as 98 % of control, the T/C [13] is reported as 107 % of control and the T/C [14] is reported as 98 % of control.

In the case of `Nc1cccc2c1C(=O)c1cc(Cl)c(Cl)cc1C2=O`, the T/C [5] is reported as 104 % of control, the T/C [6] is reported as 97 % of control and the T/C [10] is reported as 89 % of control.

For `CCC(=S)Nc1ccc(Cl)cc1`, the T/C [4] was 103 % of control, the T/C [5] was 105 % of control and the T/C [6] was 112 % of control. The T/C [7] was 91 % of control and the T/C [11] was 110 % of control.

With `COC(CCC#N)c1ccc(C)cc1` (stereo not drawn) the T/C (dose: 100.0 mg/kg/injection, schedule: Q01DX009 (sc), vehicle: olive oil, sesame oil, peanut oil) was 102 % of control, the T/C (dose: 100.0 mg/kg/injection, schedule: Q04DX003 (sc), vehicle: olive oil, sesame oil, peanut oil) was 108 % of control and the T/C (dose: 200.0 mg/kg/injection, schedule: Q01DX009 (sc), vehicle: olive oil, sesame oil, peanut oil) was 91 % of control. The T/C (dose: 200.0 mg/kg/injection, schedule: Q04DX003 (sc), vehicle: olive oil, sesame oil, peanut oil) was 108 % of control, the T/C (dose: 400.0 mg/kg/injection, schedule: Q01DX009 (sc), vehicle: olive oil, sesame oil, peanut oil) was 98 % of control and the T/C (dose: 400.0 mg/kg/injection, schedule: Q04DX003 (sc), vehicle: olive oil, sesame oil, peanut oil) was 96 % of control.

With `COc1cc(OC)c(-c2nc3ccccc3c(=O)o2)cc1OC` the T/C (dose: 75.0 mg/kg/injection, schedule: Q01DX009 (ip), vehicle: Klucel (hydroxypropylcellulose) (HPC)) was 93 % of control, the T/C (dose: 150.0 mg/kg/injection, schedule: Q01DX009 (ip), vehicle: Klucel (hydroxypropylcellulose) (HPC)) was 97 % of control and the T/C (dose: 300.0 mg/kg/injection, schedule: Q01DX009 (ip), vehicle: Klucel (hydroxypropylcellulose) (HPC)) was 101 % of control.

`C=C(C)CSC#N` was tested, and the T/C [4] was 101 % of control, the T/C [5] was 96 % of control and the T/C [6] was 101 % of control.

In the case of `CC(=O)C1=CC(=O)NC(=O)C1C(=O)CC(C)C` (stereo not drawn), the T/C (dose: 0.78 mg/kg/injection, schedule: Q01DX009 (ip), vehicle: Klucel (hydroxypropylcellulose) (HPC)) is reported as 97 % of control, the T/C (dose: 1.56 mg/kg/injection, schedule: Q01DX009 (ip), vehicle: Klucel (hydroxypropylcellulose) (HPC)) is reported as 97 % of control and the T/C (dose: 3.12 mg/kg/injection, schedule: Q01DX009 (ip), vehicle: Klucel (hydroxypropylcellulose) (HPC)) is reported as 93 % of control. The T/C (dose: 6.25 mg/kg/injection, schedule: Q01DX009 (ip), vehicle: Klucel (hydroxypropylcellulose) (HPC)) was 98 % of control, the T/C (dose: 12.5 mg/kg/injection, schedule: Q01DX009 (ip), vehicle: Klucel (hydroxypropylcellulose) (HPC)) was 98 % of control and the T/C (dose: 12.5 mg/kg/injection, schedule: Q04DX003 (ip), vehicle: Klucel (hydroxypropylcellulose) (HPC)) was 98 % of control. For the same compound, the T/C (dose: 25.0 mg/kg/injection, schedule: Q04DX003 (ip), vehicle: Klucel (hydroxypropylcellulose) (HPC)) was 96 % of control.

In the case of `COC1/C=C/OC2(C)Oc3c(C)c(O)c4c(O)c(c(/C=N/N5C(C)CN(Cc6ccc(C)cc6)CC5C)c(O)c4c3C2=O)NC(=O)C(C)=C/C=C/C(C)C(O)C(C)C(O)C(C)C(OC(C)=O)C1C` (stereo not drawn), the T/C [6] is reported as 94 % of control.

In the case of `O=C(O)CNC(=O)C(CSCc1ccccc1)NC(=O)OCc1ccccc1` (stereo not drawn), the T/C [2] is reported as 97 % of control and the T/C [3] is reported as 86 % of control.

For `CCCCCCCCP(=O)(CCCC)CCCC`, the T/C [7] was 96 % of control and the T/C [11] was 107 % of control.

`CCCCCCCCCCSCCCCCCCCSCCCCCCCCCC` was tested, and the T/C [12] was 94 % of control, the T/C [13] was 87 % of control and the T/C [14] was 96 % of control.

With `CC(C)CN(CC(C)C)/N=C/c1cc([N+](=O)[O-])ccc1O` the T/C [15] was 97 % of control, the T/C (dose: 200.0 mg/kg/injection, schedule: Q04DX002 (ip), vehicle: saline with Tween-80) was 91 % of control and the T/C (dose: 400.0 mg/kg/injection, schedule: Q04DX002 (ip), vehicle: saline with Tween-80) was 87 % of control.

`CC(C)=CCOC1=CC(=O)C(=O)c2ccccc21` was tested, and the T/C (dose: 25.0 mg/kg/injection, schedule: Q04DX002 (ip), vehicle: saline with Tween-80) was 87 % of control, the T/C (dose: 25.0 mg/kg/injection, schedule: Q04DX003 (ip), vehicle: saline with Tween-80) was 94 % of control and the T/C (dose: 50.0 mg/kg/injection, schedule: Q04DX002 (ip), vehicle: saline with Tween-80) was 95 % of control. The T/C (dose: 50.0 mg/kg/injection, schedule: Q04DX003 (ip), vehicle: saline with Tween-80) was 93 % of control, the T/C [15] was 95 % of control and the T/C [7] was 99 % of control.
